Measured values from publication PMC11203957, “Naphthoquinone-Quinolone Hybrids with Antitumor Effects on Breast Cancer Cell Lines—From the Synthesis to 3D-Cell Culture Effects” (International Journal of Molecular Sciences, 2024).

Tests used:
[1] = tested on: MKN-74 cocultured with stromal cells Hs738; design: method as in PMID 23632919; conditions: coculture with stromal cells; cited from earlier work
[2] = tested on: HCT-15 cocultured with stromal cells CCd-18Co; design: method as in PMID 23632919; conditions: coculture with stromal cells; cited from earlier work
[3] = tested on: human gastric cancer cells (MKN-74); design: method as in PMID 23651559, PMID 25457491; conditions: cited from earlier work
[4] = tested on: colorectal cancer cells (HCT-15); design: method as in PMID 23651559, PMID 25457491; conditions: cited from earlier work
[5] = tested on: MCF-7 human breast cancer cells; design: method as in PMID 33039723; conditions: cited from earlier work
[6] = tested on: non-cancerous cell line MCF10A; design: method as in PMID 30129412; conditions: cited from earlier work
MCF-7 [7] = tested on: MCF-7; design: method as in PMID 30129412; conditions: cited from earlier work
4T1 = tested on: 4T1; design: method as in PMID 30129412; conditions: cited from earlier work
MDA-MB-231 [8] = tested on: MDA-MB-231; design: method as in PMID 30129412; conditions: cited from earlier work
MCF10A = experiment: MTT cell viability assay, non-tumor MCF10A; conditions: for IC50: Homo sapiens, MCF-10A, 24 h, read-out: IC50 ± SEM MCF10A
MCF-7 cells = experiment: Annexin V/PI apoptosis assay, MCF-7; assay type: cell-based, human; conditions: 50 µM
Experimental: (§1) We investigated apoptosis induction through the annexin V/PI protocol, as described in Section 3. Doxorubicin, 1,4-naphthoquinone, and cisplatin were used as controls. […] For MDA-MB-231 cells (Figure 5B), the effects observed were more prominent at the concentrations tested.
(§2) For the apoptosis assay, the manufacturer’s instructions were followed (Dead Cell Apoptosis Kit with Annexin V for Flow Cytometry, Thermo Fisher Scientific, MA, USA). The cells were analyzed in a Countess II FL cell counter (Thermo Fisher Scientific, Waltham, MA, USA).
(§3) Figure 5 Naphthoquinone-quinolone hybrids induce apoptosis in MCF-7 (A) and MDA-MB-231 (B) cells at different levels.

MCF-7 spheroids = experiment: 3D-cell culture (spheroids), morphology and acid phosphatase viability, MCF-7; assay type: cell-based, human; conditions: 25 µM, 48 h
Source text: 3D-cell cultures display features that resemble in vivo tumors: due to their tridimensional structure, cells are not provided with the same amounts of oxygen and nutrients in the center as on the surface, resulting in a gradient that leads to the formation of a necrotic core, similar to the in vivo tumor environment. In the 3D-cell culture model used here, spheroids are formed due to low interaction with the microplate bottom, promoted by its coating with agarose, and strong cell-to-cell interactions in MCF-7 cells, generating a finely compact and homogeneous spheroid. For MDA-MB-231 cells, the addition of collagen I is an extra stimulus necessary for spheroid stabilization. Spheroids were prepared and grown for 48 h and then treated with the compounds at 25 µM. After 48 h, morphological changes were observed, and their viabilities were measured as described in Section 3. The exposure to the compounds for 48 h promoted visible changes in the morphologies of spheroids for both cell lines when compared to the controls (Figure 8). […] While it is more complicated to imply changes in the proliferative (surface) region of the MDA-MB-231 spheroids (Figure 8B), they are observed together with morphological changes after treatment, making them appear more crumbly and lose their round shape. These findings are in line with the viability test, which detected a reduction in the viabilities for all of them, which is significant compared to the control (p < 0.05), except for 11a in MDA-MB-231 spheroids (Figure 8C,D). We should also highlight that the concentrations necessary for an effect on spheroids are expected to be higher when compared to 2D-cell culture models. Here, we observed changes using 25 µM of each compound, as performed in the other experiments.
The procedure was performed as described by Gong et al., with a few modifications. A total of 5000 cells per well were plated on 96-well plates with bottoms previously covered with 50 µL of a 1% agarose solution. The plates were then centrifuged at 300× g for 10 min. For MDA-MB-231 cells, collagen I from rat tail (Gibco) was added to a 3 µg/mL final concentration in the cell suspension. […] The cell spheroids/aggregates were treated with fresh medium added to the compounds and their viability was evaluated after 48 h. Spheroids were photographed with an inverted microscope Bel INV-100 (Bel Engineering, Monza, Italy) equipped with a digital camera.
To measure spheroids viability, this viability assay was performed following Friedrich et al.. The medium was removed from wells and spheroids were washed with PBS. Then, 100 µL of a solution containing 2 mg/mL p-nitrophenyl phosphate (PNPP), 0.1 M citric acid, and 0.1% (v/v) Triton X, pH 5.0 were added. […]

MDA-MB-231 [9] = experiment: MTT cell viability assay, MDA-MB-231 (2D culture); assay type: cell-based, human; conditions: for IC50: Homo sapiens, MDA-MB-231, MTT, 24 h treatment, 2D culture, read-out: IC50 ± SEM MDA-MB-231; for SI IC50 MCF10A/ IC50 MDA-MB-231: selectivity index
Experimental: (§4) Our first approach to assessing the anticancer activity of the novel 1,4-naphthoquinone/4-quinolone conjugates 11a–f on breast cancer cells involved comparing their effects in the MTT cell viability assay to determine the half-maximal inhibitory concentration (IC50) in the 2D cell culture model. Doxorubicin and 1,4-naphthoquinone were used as controls. Concentration-response curves were obtained with the conjugates at concentrations ranging from 0 to 200 µM. […] This observation aligns with the structural characteristics of this derivative, which features the largest alkyl substituent at position R^1.
(§5) The IC50 values were calculated using GraphPad Prism v. 8.0.1, and the selectivity index was estimated as the ratio between the IC50 value of MCF10A/IC50 value of MDA-MB-231 or MCF-7 [33], for each compound.

MDA-MB-231 spheroids = experiment: 3D-cell culture (spheroids), morphology and acid phosphatase viability, MDA-MB-231; assay type: cell-based, human; conditions: 25 µM, vs control, p < 0.05
Source text: 3D-cell cultures display features that resemble in vivo tumors: due to their tridimensional structure, cells are not provided with the same amounts of oxygen and nutrients in the center as on the surface, resulting in a gradient that leads to the formation of a necrotic core, similar to the in vivo tumor environment. In the 3D-cell culture model used here, spheroids are formed due to low interaction with the microplate bottom, promoted by its coating with agarose, and strong cell-to-cell interactions in MCF-7 cells, generating a finely compact and homogeneous spheroid. For MDA-MB-231 cells, the addition of collagen I is an extra stimulus necessary for spheroid stabilization. Spheroids were prepared and grown for 48 h and then treated with the compounds at 25 µM. After 48 h, morphological changes were observed, and their viabilities were measured as described in Section 3. […] These findings are in line with the viability test, which detected a reduction in the viabilities for all of them, which is significant compared to the control (p < 0.05), except for 11a in MDA-MB-231 spheroids (Figure 8C,D). […]
The procedure was performed as described by Gong et al., with a few modifications. […] The cell spheroids/aggregates were treated with fresh medium added to the compounds and their viability was evaluated after 48 h. […]

MCF-7 [10] = experiment: MTT cell viability assay, MCF-7 (2D culture); assay type: cell-based, human; conditions: for IC50: Homo sapiens, MCF7, MTT, 24 h treatment, 2D culture, read-out: IC50 ± SEM MCF-7; for SI IC50 MCF10A/IC50 MCF-7: selectivity index
Experimental: as §4, §5

MDA-MB-231 cells [11] = experiment: Clonogenic assay, MDA-MB-231; assay type: cell-based, human; conditions: 25 µM, 24 h treatment, about 14 days growth
Source text: The clonogenic assay is an effective tool for investigating individual cells’ ability to form colonies. Tumor cells with the ability to generate an expanding family of descendants are clonogenic. Therefore, a clonogenic assay is a simple method to verify one of the important characteristics of cancer cells, which is the ability to detach from the site of origin and to form metastases in other locations. […] For instance, 90–99% of the tumor cells in FaDU tumors, a type of human squamous cell carcinoma observed in nude mice, are non-clonogenic. To achieve the main goal of cancer treatment, which is tumor eradication, it is necessary to inactivate all clonogenic cells through either cell killing or the induction of a permanent state of dormancy, thereby eliminating their clonogenic capacity. The assessment of the potential of a drug to achieve a curative outcome, i.e., effectively neutralizing clonogenic tumor cells, requires the utilization of experimental endpoints that accurately reflect the response of clonogenic cells. Clonogenic endpoints hold particular significance when novel anticancer agents are incorporated into curative therapeutic regimens, such as in combination with radiotherapy or chemotherapy. Thus, clonogenic assays were conducted for compounds 11a–f and 1,4-naphthoquinone.
Figure 6 The inhibition of colony formation by compounds 11a–f using MCF-7 (A,C) and MDA-MB-231 (B,D) cell lines. Cells were treated with derivatives 11a–f at 25 µM for 24 h. Subsequently, 400 cells were plated on 6-well plates for approximately 14 days. Then, cells were stained with crystal violet dye to visualize the colonies formed.

[12] = Solubility in the culture medium (inferred from MTT curves); assay type: physicochemical; conditions: concentrations >25 µM
Experimental: as §4

[13] = tested on: gastric cancer cells ACP03; design: method as in PMID 24858098; conditions: cited from earlier work
[14] = tested on: hepatocellular carcinoma (BEL7402); design: method as in PMID 22406451; conditions: cited from earlier work
MDA-MB-231 cells [15] = experiment: Annexin V/PI apoptosis assay, MDA-MB-231; assay type: cell-based, human; conditions: 50 µM
Experimental: as §1, §2, §3

[16] = tested on: cervix adenocarcinoma (HeLa); design: method as in PMID 22406451; conditions: cited from earlier work
[17] = tested on: non-tumorigenic prostate epithelial cells (RWPE-1); conditions: cited from earlier work
tumor = tested on: tumor; design: method as in PMID 18974148; conditions: 2 mg/kg (body weight), three weeks of treatment; cited from earlier work
[18] = tested on: refractory invasive prostate cancer cells (DU145); design: method as in PMID 18974148; conditions: cited from earlier work
[19] = low concentrations (<25 µM), effect plateaus above 25 µM

Structure (SMILES): CSC(=NCn1c(C/C=C(\C)CCC=C(C)C)cc(=O)c2ccccc21)SC [Compound 4, intervenolin]
- IC50 [1]: 0.4 µM
- IC50 [2]: 0.5 µM
- IC50 [3]: 7 µM
- IC50 [4]: 3.7 µM

Structure (SMILES): Cc1ccc(NC(=O)c2ccc(NC3=C(Cl)C(=O)c4ccccc4C3=O)cc2)nc1 [Compound 7]
- cytotoxicity against MCF-7 [5]: high cytotoxicity

Structure (SMILES): CCOC(=O)c1cn(CC)c2ccc(-n3cc(COC4=C(CC=C(C)C)C(=O)c5ccccc5C4=O)nn3)cc2c1=O [Compound 10]
- cytotoxicity against MCF10A [6]: no significant cytotoxicity
- activity against MCF-7 (MCF-7 [7]): demonstrated activity
- activity against 4T1 (4T1): demonstrated activity
- activity against MDA-MB-231 (MDA-MB-231 [8]): demonstrated activity

Structure (SMILES): CCOC(=O)c1cn(CC)c2ccc(C3=CC(=O)c4ccccc4C3=O)cc2c1=O [Compound 11a, Ethyl 6-(1,4-dioxo-1,4-dihydronaphthalen-2-yl)-1-ethyl-4-oxo-1,4-dihydroquinoline-3-carboxylate]
- IC50 (MCF10A): 10.6 ± 1.2 µM
- cytotoxicity effect in MCF10A compared with doxorubicin (MCF10A; relative to doxorubicin): seven times lower
- early apoptosis induction (annexin V/PI), MCF-7 (MCF-7 cells): comparable
- spheroid morphology, MCF-7 (MCF-7 spheroids): changes in the morphology
- IC50 (MDA-MB-231 [9]): 9.16 ± 1 µM
- SI IC50 MCF10A/ IC50 MDA-MB-231 (MDA-MB-231 [9]): 1.15 ± 0.15
- spheroid viability (acid phosphatase), MDA-MB-231 (MDA-MB-231 spheroids): significant decrease was observed for all compounds, except for 11a
- IC50 (MCF-7 [10]): 18.7 ± 1.1 µM
- SI IC50 MCF10A/IC50 MCF-7 (MCF-7 [10]): 0.57 ± 0.12
- colony formation, MDA-MB-231 (MDA-MB-231 cells [11]): most effective

Structure (SMILES): O=C1C=C(c2ccc3c(c2)c(=O)c(C(=O)O)cn3Cc2ccccc2)C(=O)c2ccccc21 [Compound 11e, 1-benzyl-6-(1,4-dioxo-1,4-dihydronaphthalen-2-yl)-4-oxo-1,4-dihydroquinoline-3-carboxylic acid]
- melting point: > 300 °C
- solubility in the medium [12]: low solubility
- anticancer activity in MTT concentration-response curve, MDA-MB-231 (MDA-MB-231 [9]; [19]): comparable to the most active derivatives at low concentrations
- anticancer activity in MTT concentration-response curve, MCF-7 (MCF-7 [10]; [19]): comparable to the most active derivatives at low concentrations

Structure (SMILES): COc1cccc2c1C(=O)c1c(O)c3c(c(O)c1C2=O)C[C@@](O)(C(=O)CO)C[C@@H]3O[C@H]1C[C@H](N)[C@H](O)[C@H](C)O1 [Doxorubicin, reference compound]
- IC50 [13]: 0.274 µM
- IC50 [14]: 19.3 ± 1.2 µM
- IC50 (MCF10A): 1.49 ± 1.3 µM
- early apoptosis induction (annexin V/PI), MCF-7 (MCF-7 cells): shows early apoptosis but also shows late apoptosis/necrosis in a great proportion
- apoptosis profile (annexin V/PI), MDA-MB-231 (MDA-MB-231 cells [15]): effects similar to those seen on MCF-7 cells
- spheroid morphology, MCF-7 (MCF-7 spheroids): changes in the morphology
- IC50 (MDA-MB-231 [9]): 2.76 ± 1.2 µM
- SI IC50 MCF10A/ IC50 MDA-MB-231 (MDA-MB-231 [9]): 0.54 ± 0.10
- IC50 [16]: 21.1 ± 1.9 µM
- IC50 (MCF-7 [10]): 14.2 ± 1.1 µM
- SI IC50 MCF10A/IC50 MCF-7 (MCF-7 [10]): 0.10 ± 0.09

Structure (SMILES): CC1=CC(=O)c2c(O)cccc2C1=O [plumbagin]
- effect on RWPE-1 [17]: without affecting
- tumor reduction (tumor): 90%
- apoptosis induction in DU145 [18]: selectively induces apoptosis
